Values quoted from earlier work as cited in patent US9877930B2, “Topical ubiquinol oral supplement compositions with amorphous calcium phosphate” (Premier Dental Products Company, priority 2012, dated 2018).

What was measured:
adult periodontitis = conditions: topical once weekly via syringe for six weeks, with mechanical debridement; sites that bled at day 0
periodontal disease = conditions: 150 mg capsule/day for two months
[1] = test system: human monocytic celline THP-1; conditions: LPS-stimulated THP-1
[2] = not given; remark: listed apart in the source
[3] = 150 mg per day in a softgel, orally, within 28 days

Row | Compound | bleeding on probing at treated sites (adult periodontitis) | time required to reach peak concentration (absorption from the gastrointestinal tract) | time to steady-state concentrations (oral treatment) | effect on oral environment for periodontal disease (periodontal disease) | effect on inflammatory cytokines and chemokines in vitro [1] | water solubility [2] | peak blood values [3]
1 | COC1=C(OC)C(=O)C(C/C=C(\C)CC/C=C(\C)CC/C=C(\C)CC/C=C(\C)CC/C=C(\C)CC/C=C(\C)CC/C=C(\C)CC/C=C(\C)CC/C=C(\C)CCC=C(C)C)=C(C)C1=O [CoQ10, ubiquinone] | no bleeding at six weeks | – | – | – | – | – | –
2 | COc1c(O)c(C)c(C/C=C(\C)CC/C=C(\C)CC/C=C(\C)CC/C=C(\C)CC/C=C(\C)CC/C=C(\C)CC/C=C(\C)CC/C=C(\C)CC/C=C(\C)CCC=C(C)C)c(O)c1OC [UBIQUINOL] | – | approximately 6 hours | within two weeks | effective in improving oral environment for periodontal disease | anti-inflammatory effects | less than 0.1 mg/ml | 3.84 µg/mL
